Measurements: the supplement of paper PMC10949913

Assays:
Experiment in all cases: area under concentration-response curve (viability) (AUC (a.u.)); higher = less active
Conditions in all cases: 48 h
NCI-H295R = system: NCI-H295R
How it was run: (§1)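 Three adrenocortical carcinoma cell lines were seeded at 500–1,000 cells/well in 5 µL medium in 1,536-well plates. 23 nL of each MIPE 5.0 library compound was added at 11 concentrations. After 48 h (per the protocol name), CellTiter-Glo was added for 15 minutes at room temperature and luminescence was read. Signals were normalised per plate to vehicle and empty-well controls. AC50 and area under the curve came from fitted concentration-response curves, keeping only inhibitory or non-responding curve classes.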

CU-ACC2 = system: CU-ACC2
How it was run: as §1

CU-ACC1 = system: CU-ACC1
How it was run: as §1

| SMILES | area under concentration-response curve (NCI-H295R) | area under concentration-response curve (CU-ACC2) | area under concentration-response curve (CU-ACC1) |
| --- | --- | --- | --- |
| CCC(=O)NC[C@H](Cc1ccc(OCCc2nc(-c3ccccc3)oc2C)cc1)N/C(C)=C\C(=O)c1ccc(C(F)(F)F)cc1 | 487 | 548 | 498 |
| Cc1onc(-c2ccccc2)c1-c1ccc([S+](N)(=O)[O-])cc1 | 535 | 570 | 457 |
| CN1CC(=O)\N=C1\NC(=O)NC2=CC(=CC=C2)Cl | 486 | 566 | 497 |
| Cc1ccnc(N[S+](=O)([O-])c2ccc(NC(=O)Nc3ccc([S+](=O)([O-])Nc4nccc(C)n4)cc3)cc2)n1 | 537 | 566 | 499 |
| CC12CC3CC(C)(C1)CC(N)(C3)C2 | 457 | 431 | 437 |
| NNc1nncc2ccccc12 | 534 | 568 | 525 |
| CN1CCN(CC1)C2=C(NC(=O)C/3=C/NC(=O)/C=C3C(F)(F)F)C=C(C=C2)C4=CC(=CC=C4)CN5CCOCC5 | 514 | 610 | 508 |
| Cc1ccc([S+](=O)([O-])OCC(=O)Nc2ccc(C(=O)O)c(O)c2)cc1 | 546 | 589 | 543 |
| C[C@@H]1C[C@H]2[C@@H]3CCC\4=C\C(=O)\C=C/[C@]4(C)[C@@]3(F)[C@@H](O)C[C@]2(C)[C@@]1(O)C(=O)CO | 481 | 588 | 515 |
| NC(=O)NO | 511 | 590 | 503 |
| CC1(N)CCN(c2cnc(-c3cccc(Cl)c3Cl)c(N)n2)CC1 | 577 | 627 | 543 |
| N#Cc1ccc(C(c2ccc(C#N)cc2)n2cncn2)cc1 | 516 | 428 | 488 |
| Nc1nccc(-c2c(-c3ccc(F)cc3)ncn2C2CCN(Cc3ccon3)CC2)n1 | 495 | 578 | 467 |
| S=P(N1CC1)(N1CC1)N1CC1 | 562 | 590 | 496 |
| NC(=O)c1cccc(N)c1 | 595 | 656 | 582 |
| Cn1c(=O)c2c(ncn2CC(O)CO)n(C)c1=O (centres undefined) | 483 | 531 | 437 |
| CCC(=O)NCC[C@@H]1CCc2ccc3c(c21)CCO3 | 531 | 564 | 490 |
| COC(=O)Nc1nc2cc(C(=O)c3ccc(F)cc3)ccc2[nH]1 | 462 | 574 | 570 |
| CC1(C)O[C@@H]2C[C@H]3[C@@H]4C[C@H](F)\C5=C\C(=O)\C=C/[C@]5(C)[C@H]4[C@@H](O)C[C@]3(C)[C@@]2(O1)C(=O)CO | 588 | 622 | 515 |

| SMILES | area under concentration-response curve (NCI-H295R) | area under concentration-response curve (CU-ACC2) | area under concentration-response curve (CU-ACC1) |
| --- | --- | --- | --- |
| CCC(CCCC)COC(=O)C(\C#N)=C(\c1ccccc1)c2ccccc2 (centres undefined) | 583 | 667 | 540 |
| CCN1\C=C(\C(O)=O)C(=O)C2=C1C=C(N3CCNCC3)C(=C2)F | 393 | 397 | 356 |
| Cc1cc(O)c2c(c1)C(=O)c1cc(O)cc(O)c1C2=O | 498 | 521 | 471 |
| CC(C[N+](C)(C)C)OC(N)=O (centres undefined) | 591 | 662 | 569 |
| O=C(NC1CCOCC1)c1ccc(-c2cc(-c3c[nH]nc3-c3ccccn3)ccn2)cc1 | 453 | 497 | 429 |
| COc1cc(N2CCC(O)CC2)ccc1Nc1cc(Nc2ccccc2[S+](=O)([O-])C(C)C)c2cc[nH]c2n1 | 588 | 654 | 585 |
| CC/1=C2/N(C(=O)C(=C1)/NC3=CC(=NC=N3)N)C4(CCCCC4)NC2=O | 537 | 641 | 594 |
| CNC(=O)[C@H](Cc1c[nH]c2ccccc12)NC(=O)[C@@H](CC(=O)NO)CC(C)C | 460 | 492 | 473 |
| COc1cc2ncnc(-n3nc(-c4ccccn4)nc3N)c2cc1OC | 489 | 551 | 458 |
| Cc1nnc(C(C)C)n1C1CC2CCC(C1)N2CCC(NC(=O)C1CCC(F)(F)CC1)c1ccccc1 (centres undefined) | 451 | 498 | 478 |
| CN(C)C(=O)COC(=O)Cc1ccc(OC(=O)c2ccc(NC(=N)N)cc2)cc1 | 541 | 564 | 464 |
| COc1ccc([S+](=O)([O-])N[C@@H](CNc2nc(C)nc(N3CCC(c4ccc5c(n4)NCCC5)CC3)c2C)C(=O)O)cc1 | 589 | 441 | 554 |
| CCN1C(=O)\C(=C/C2=C1N=C(NC3=CC=C(N4CCNCC4)C(=C3)F)N=C2)C5=CC=C(Cl)C=C5Cl | 537 | 580 | 518 |
| NC(=O)c1ccc(-c2nc(-c3ccc4c(c3)OCO4)c(-c3ccccn3)[nH]2)cc1 | 509 | 633 | 286 |
| O=NN(CCCl)C(=O)NCCCl | 466 | 522 | 454 |
| CCN(CC)CCOc1ccc(Cc2ccccc2)cc1 | 503 | 526 | 454 |
| CCC(=O)[N-]S(=O)(=O)c1ccc(-c2c(-c3ccccc3)noc2C)cc1.[Na+] | 595 | 656 | 549 |
| NC12CC3CC(CC(C3)C1)C2 | 523 | 509 | 466 |
| NCC[S+](=O)([O-])O | 488 | 585 | 495 |
